The results in this text go back to patent publication US20250302823A1, “COMPOSITIONS AND METHODS FOR TREATING HEPATIC […] GLYCINE TRANSPORT INHIBITORS” (Disc Medicine, Inc., priority 2022, published 2025).

Each structure is given as a SMILES string.

Assay [1] concerns the target T1, GlyT1 (Homo sapiens, UniProt P48067).
T1 construct: expressed in transfected cells; host or cells: HepG2, lentiviral infection (pLenti6.3-GlyT1)
T1 sequence (P48067 1-706): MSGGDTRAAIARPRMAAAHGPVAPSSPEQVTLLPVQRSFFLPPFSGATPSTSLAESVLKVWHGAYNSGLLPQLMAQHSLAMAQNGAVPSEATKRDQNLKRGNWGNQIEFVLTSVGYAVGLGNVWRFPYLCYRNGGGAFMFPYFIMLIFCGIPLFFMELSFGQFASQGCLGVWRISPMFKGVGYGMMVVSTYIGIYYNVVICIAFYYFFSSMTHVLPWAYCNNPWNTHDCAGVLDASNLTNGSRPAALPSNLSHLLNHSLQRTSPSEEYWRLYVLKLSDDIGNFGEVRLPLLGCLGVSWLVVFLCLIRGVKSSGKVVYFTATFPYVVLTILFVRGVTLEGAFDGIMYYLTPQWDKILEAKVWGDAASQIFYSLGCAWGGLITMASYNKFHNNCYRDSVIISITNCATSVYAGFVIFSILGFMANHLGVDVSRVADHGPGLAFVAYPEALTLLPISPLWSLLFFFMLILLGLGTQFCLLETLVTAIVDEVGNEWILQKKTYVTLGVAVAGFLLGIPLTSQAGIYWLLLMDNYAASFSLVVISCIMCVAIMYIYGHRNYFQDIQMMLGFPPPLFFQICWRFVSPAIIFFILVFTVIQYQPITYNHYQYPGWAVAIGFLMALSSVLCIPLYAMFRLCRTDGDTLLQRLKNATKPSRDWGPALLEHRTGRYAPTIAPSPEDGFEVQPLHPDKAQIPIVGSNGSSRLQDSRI
As to the kind of experiment: 3H-glycine uptake in HepG2 cells overexpressing GlyT1. In kind it is cell-based. How it is done:
The hepatic originated cell line HepG2 cell was engineered via lentiviral infection to overexpress untagged GlyT1 (FIG. 4A) or HA-Flag-tagged GlyT1 (FIG. 4B). Overexpression of GlyT1 was used to mimic the phenobarbital induced AIP symptoms observed in HepG2 as described in Example 3. The HA-Flag tagged construct was used to confirm the overexpression of the GlyT1 protein by Western blot. Overexpression of the untagged construct was confirmed by qPCR. The cells were cultured in the presence of the GlyT1 inhibitor bitopertin at room temperature for 60 min and then incubated with 20 nM ^3H-labeled glycine in the presence of 25 μM unlabeled glycine for 60 min. The uptake of glycine was measured by detection of radioisotope levels.

Assay [2] relates to HepG2 cells transduced with shHMBS, GlyT1, ALAS1. The experiment in a line: 5-ALA and PBG production in AIP cellular model (HepG2 with shHMBS, GlyT1, ALAS1). In kind it is cell-based, human. The text has this:
The hepatic origin cell line HepG2 was engineered to express shRNA against HMBS, a gene in the heme biosynthesis pathway whose loss-of-function mutations cause hepatic porphyria. The shRNA reduced HMBS mRNA by 50% and HMBS protein by 70%. Hepatic porphyria is a dormant disease activated by increased expression of ALAS1. To establish the cellular model that resembles the pathologic status of hepatic porphyria, the HepG2 cells with HMBS knockdown were also transduced by lentivirus to overexpress ALAS1 and GlyT1.
The normal plasma glycine concentration in human adults ranges from 0.12 to 0.55 mM. To confirm GlyT1 inhibitors such as bitopertin can decrease production of toxic metabolites at physiological condition, the modified HepG2 cells were treated with bitopertin in the presence of different concentrations of glycine (0.1-1 mM).

Assay [3] deals with ALAS1 and GlyT1 mRNA in HepG2 cells. As to the kind of experiment: qPCR expression of ALAS1 and GlyT1 in HepG2 cells after phenobarbital. In general terms: Real-time PCR tracks product formation cycle by cycle.

For orientation: IC50 means the concentration at which inhibition is half-maximal. As for `C[C@H](Oc1ccc(S(C)(=O)=O)cc1C(=O)N1CCN(c2ncc(C(F)(F)F)cc2F)CC1)C(F)(F)F` [bitopertin], the IC50 in assay [1] (engineered HepG2 overexpressing untagged or HA-Flag-tagged GlyT1, 20 nM 3H-glycine + 25 μM unlabeled glycine, 60 min) lay in the range of 0.71 to 1.54 µM. For the same compound, the “glycine uptake in the engineered HepG2 cells” value in assay [1] (in the presence of bitopertin) is listed as “significantly reduced”. For the same compound, the “toxic metabolite 5-ALA at different glycine concentrations” value in assay [2] (glycine 0.1-1 mM in medium, FIG. 6A) is “consistent reduction”. Further, the “toxic metabolite PBG at different glycine concentrations” value in assay [2] (glycine 0.1-1 mM in medium, FIG. 6B) was “consistent reduction”. Besides, in assay [2] (modified HepG2 cells, FIG. 5A), the “production of toxic metabolite 5-ALA” value is “significantly decrease”. Moreover, in assay [2] (modified HepG2 cells, FIG. 5B), the “production of toxic metabolite PBG” value is “significantly decrease”.

In the case of `CCC1(c2ccccc2)C(=O)NC(=O)NC1=O` [phenobarbital], the “increase of mRNA of ALAS1 and GlyT1” value in assay [3] (HepG2, 24 h after phenobarbital treatment) came out at 3 fold; in assay [3] (HepG2, 48 h after phenobarbital treatment), 6 fold.
